The source of these data is paper PMC8067507, “Aryl Urea Based Scaffolds for Multitarget Drug Discovery in Anticancer Immunotherapies” (Pharmaceuticals, 2021).

In assay [1] the test system is A549 (pulmonary adenocarcinoma). The experiment in a line: Cell proliferation assay (MTT). Format: cell-based. As to conditions: Homo sapiens, A549, 48 h, 2 days incubation, average ± SD of three experiments.
Assay [2] deals with HEK-293 (human embryonic kidney cells). The experiment in a line: Cell proliferation assay (MTT). Format: cell-based. As to conditions: HEK293, 48 h, 2 days incubation, average ± SD of three experiments.
Assay [3] relates to HMEC-1 (human microvascular endothelial cells). The experiment in a line: Cell proliferation assay (MTT). Format: cell-based. As to conditions: HMEC-1, 48 h, 2 days incubation, average ± SD of three experiments.
For assay [4], the system named is HT-29 (colon adenocarcinoma). The assay is described as follows: Cell proliferation assay (MTT). Format: cell-based. As to conditions: Homo sapiens, HT-29, 48 h, 2 days incubation, average ± SD of three experiments.
Assay [5] deals with HeLa (epithelioid cervix carcinoma). The experiment in a line: Cell proliferation assay (MTT). Type of assay: cell-based. As to conditions: Homo sapiens, 48 h, 2 days incubation, average ± SD of three experiments.
Assay [6] concerns MCF-7 (breast adenocarcinoma). The experiment in a line: Cell proliferation assay (MTT). Type of assay: cell-based. As to conditions: Homo sapiens, MCF7, 48 h, 2 days incubation, average ± SD of three experiments.
In the next assay the test system is HMEC-1 cells. The experiment in a line: Tube formation inhibition assay. Type of assay: cell-based, human. As to conditions: HMEC-1 on Matrigel, 20 h incubation; average of three experiments. The procedure:
HT-29, MCF-7, HeLa, A549 and HEK-293 cell lines were maintained in Dulbecco’s modified Eagle’s medium (DMEM) containing glucose (1 g/L), glutamine (2 mM), penicillin (50 μg/mL), streptomycin (50 μg/mL), and amphotericin B (1.25 μg/mL), supplemented with 10% FBS. HMEC-1 cell line was maintained in Dulbecco’s modified Eagle’s medium (DMEM)/low glucose containing glutamine (2 mM), penicillin (50 μg/mL), streptomycin (50 μg/mL), and amphotericin B (1.25 μg/mL), supplemented with 10% FBS. For the development of tube formation assays in Matrigel, HMEC-1 cells were cultured in EGM-2MV Medium supplemented with EGM-2MV SingleQuots.
Wells of an IBIDI μ-slide angiogenesis (IBIDI, Martinsried, Germany) were coated with 12 μL of Matrigel® (10 mg/mL, BD Biosciences) at 4 °C. After gelatinization at 37 °C for 30 min, HMEC-1 cells were seeded at 2 × 10^4 cells/well in 35 μL of culture medium on top of the Matrigel and were incubated 30 min at 37 °C while are attached. Then, compounds were added dissolved in 35 μL of culture medium and after 20 h of incubation at 37 °C, tube destruction was evaluated.

For `COc1ccc(/C=C\c2cccc(NC(=O)Nc3ccc(Br)cc3)c2)cc1` [Compound 16], the IC50 (in general, the concentration needed to halve the response being measured) in assay [1] amounted to 12 ± 2 µM; in assay [2] it was 10 ± 2 µM; in assay [3], 27 ± 8 µM; in assay [4], 17 ± 1 µM; in assay [5], 12 ± 4 µM; in assay [6], 24 ± 7 µM. The “Minimum Active Conc. (inhibition of tube formation)” value in the assay on HMEC-1 cells was found to be 10 µM.
